This is an account of results in US10517889B2, “Modulators of SMAD7 expression” (Ionis Pharmaceuticals, Inc., priority 2017, dated 2019).

Strand notation (5' to 3'): a small letter for the sugar, then the base; units joined by * are phosphorothioate-linked, units joined directly phosphodiester-linked; [ ] holds rarer units or linkages, { } end groups; capitals alone tell only the bases. k = constrained ethyl (cEt); [5mC] = 5-methylcytosine; d = 2'-deoxy (DNA)

One may read the % Inhibition as the change of the read-out against control, counted positive when it falls. A higher % Inhibition goes with strong suppression.

In the first data set the test system is human SMAD7 mRNA. Briefly: Antisense inhibition of human SMAD7 mRNA expression in Hep3B cells by 3-10-3 cEt gapmers, 10,000 nM, electroporation (Example 2). Type of data set: cell-based. The note with it: Hep3B cells, 10,000 nM antisense oligonucleotide, electroporation, approximately 24 hours, RT-PCR primer probe set RTS5062, relative to untreated control cells. The essentials: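 Percent inhibition of SMAD7 mRNA, relative to untreated cells, after ~24 h exposure of electroporated Hep3B cells to 10,000 nM cEt gapmer; levels by qRT-PCR, corrected for total RNA.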
Regarding “800072 (antisense kG*kA*k[5mC]*dT*dT*dG*dG*dG*dA*d[5mC]*d[5mC]*dA*dT*kA*kA*kA) [compound 800072]”, the “% Inhibition” value was determined as 0%.

Turning to “800073 (antisense kT*kA*kA*dG*dT*dA*dG*dG*dA*dG*d[5mC]*d[5mC]*dA*kG*k[5mC]*kG) [compound 800073]”, the “% Inhibition” value is reported as 39%.

“800074 (antisense kG*kG*kG*d[5mC]*dA*dT*dT*d[5mC]*dT*dG*dA*d[5mC]*dT*k[5mC]*k[5mC]*kT) [compound 800074]”: the “% Inhibition” value is 33%.

As to “800075 (antisense kT*kA*kA*dT*dT*dT*dT*d[5mC]*d[5mC]*dT*d[5mC]*dA*dA*k[5mC]*kA*kG) [compound 800075]”, the “% Inhibition” value is recorded as 55%.

With “800076 (antisense k[5mC]*kG*k[5mC]*dT*dT*d[5mC]*d[5mC]*d[5mC]*dT*dA*d[5mC]*dA*d[5mC]*kA*kG*kT) [compound 800076]”, the “% Inhibition” value worked out at 25%.

For “800077 (antisense k[5mC]*k[5mC]*kT*dT*dA*dA*d[5mC]*dA*dA*dA*dG*d[5mC]*dT*kT*k[5mC]*k[5mC]) [compound 800077]”, the “% Inhibition” value is 36%.

Take “800078 (antisense kA*k[5mC]*k[5mC]*dT*dT*dA*dA*d[5mC]*dA*dA*dA*dG*d[5mC]*kT*kT*k[5mC]) [compound 800078]”: the “% Inhibition” value was determined as 51%.

Take “800089 (antisense kA*kG*kG*dA*dA*d[5mC]*d[5mC]*dT*dA*dT*d[5mC]*dT*dG*kG*kT*kA) [compound 800089]”: the “% Inhibition” value came to 0%.

On to “800090 (antisense k[5mC]*kA*k[5mC]*d[5mC]*dT*dA*dT*dG*d[5mC]*dG*dA*dT*dG*kG*kT*k[5mC]) [compound 800090]”, for which the “% Inhibition” value turned out to be 0%.

Consider “800091 (antisense kT*kG*kA*d[5mC]*dA*d[5mC]*dA*dG*d[5mC]*d[5mC]*dA*dG*dA*kG*k[5mC]*kT) [compound 800091]”, for which the “% Inhibition” value is listed as 0%.

With “800092 (antisense kA*kT*k[5mC]*d[5mC]*dT*dG*dA*dT*dG*dA*dG*dA*dA*kA*kA*k[5mC]) [compound 800092]”, the “% Inhibition” value worked out at 0%.

As for “800093 (antisense kT*kT*kG*dA*dA*dG*dG*d[5mC]*d[5mC]*dA*dG*d[5mC]*dT*k[5mC]*k[5mC]*kT) [compound 800093]”, the “% Inhibition” value amounted to 48%.

“800094 (antisense kA*kT*kG*dG*dA*dA*d[5mC]*d[5mC]*dT*dT*dG*dA*dA*kG*kG*k[5mC]) [compound 800094]”: the “% Inhibition” value worked out at 49%.

Consider “800095 (antisense kA*kG*kT*dT*dA*d[5mC]*dA*dG*dA*dT*d[5mC]*dT*dT*kT*k[5mC]*kA) [compound 800095]”, for which the “% Inhibition” value stood at 47%.

Take “800096 (antisense kT*kG*kG*dA*dG*dT*dT*dA*d[5mC]*dA*dG*dA*dT*k[5mC]*kT*kT) [compound 800096]”: the “% Inhibition” value amounted to 32%.

Consider “800097 (antisense kG*k[5mC]*k[5mC]*dT*d[5mC]*dA*dA*dA*dA*dA*dG*d[5mC]*d[5mC]*kT*k[5mC]*kA) [compound 800097]”, for which the “% Inhibition” value was found to be 1%.

On to “800098 (antisense kT*kT*kT*dT*dA*dG*dG*dG*d[5mC]*d[5mC]*dT*d[5mC]*dA*kA*kA*kA) [compound 800098]”, for which the “% Inhibition” value came to 1%.

Still in this data set, the particulars now being: Hep3B cells, electroporation with 10,000 nM antisense oligonucleotide, approximately 24 hours, SMAD7 mRNA by RT-PCR (RTS5062), relative to untreated control cells.
On to “800079 (antisense kT*kA*k[5mC]*d[5mC]*dT*dT*dA*dA*d[5mC]*dA*dA*dA*dG*k[5mC]*kT*kT) [compound 800079]”, for which the “% Inhibition” value is 61%.

Turning to “800080 (antisense kG*kG*kG*d[5mC]*dT*dA*d[5mC]*d[5mC]*dT*dT*dA*dA*d[5mC]*kA*kA*kA) [compound 800080]”, the “% Inhibition” value turned out to be 14%.

“800081 (antisense k[5mC]*kG*kG*dT*dA*dT*dT*dA*dA*d[5mC]*d[5mC]*d[5mC]*dG*kG*kG*k[5mC]) [compound 800081]”: the “% Inhibition” value was determined as 0%.

Turning to “800082 (antisense kG*k[5mC]*kA*dG*dA*d[5mC]*d[5mC]*dG*dG*dT*dA*dT*dT*kA*kA*k[5mC]) [compound 800082]”, the “% Inhibition” value was found to be 12%.

On to “800083 (antisense kT*kG*k[5mC]*dA*dG*dA*d[5mC]*d[5mC]*dG*dG*dT*dA*dT*kT*kA*kA) [compound 800083]”, for which the “% Inhibition” value turned out to be 11%.

Consider “800084 (antisense kG*k[5mC]*k[5mC]*dA*dA*dA*dT*d[5mC]*dA*d[5mC]*dA*dA*d[5mC]*kA*kT*kG) [compound 800084]”, for which the “% Inhibition” value is given as 57%.

As to “800085 (antisense kA*kG*k[5mC]*dA*dG*d[5mC]*d[5mC]*d[5mC]*dT*dG*dT*dA*d[5mC]*kA*k[5mC]*kA) [compound 800085]”, the “% Inhibition” value stood at 37%.

As for “800086 (antisense kA*kG*k[5mC]*dA*dG*d[5mC]*dA*dG*d[5mC]*d[5mC]*d[5mC]*dT*dG*kT*kA*k[5mC]) [compound 800086]”, the “% Inhibition” value is 40%.

For the substance “800087 (antisense kT*kA*kA*dT*dA*dG*dG*dA*dA*dA*dA*d[5mC]*dA*kG*kT*k[5mC]) [compound 800087]”, the “% Inhibition” value amounted to 0%.

In the case of “800088 (antisense kA*kA*kT*dG*dA*dG*dG*dG*dT*dG*dG*d[5mC]*dT*kT*kG*kG) [compound 800088]”, the “% Inhibition” value came to 54%.

For the substance “800099 (antisense kT*kG*k[5mC]*dA*dA*dA*dG*dG*dG*dA*d[5mC]*d[5mC]*d[5mC]*kT*kT*kA) [compound 800099]”, the “% Inhibition” value is reported as 6%.

“800100 (antisense kT*kG*k[5mC]*dA*dG*dA*dG*d[5mC]*dA*d[5mC]*dA*dG*dA*kT*kG*k[5mC]) [compound 800100]”: the “% Inhibition” value turned out to be 16%.

As to “800101 (antisense kA*kA*k[5mC]*dA*dA*dA*dG*d[5mC]*d[5mC]*dT*d[5mC]*dT*dT*k[5mC]*kT*k[5mC]) [compound 800101]”, the “% Inhibition” value is given as 0%.

In the case of “800102 (antisense kA*k[5mC]*kG*dA*dG*dA*d[5mC]*dA*dG*dA*dA*dA*dG*kA*kA*kG) [compound 800102]”, the “% Inhibition” value is 21%.

For the substance “800103 (antisense kG*kG*kA*d[5mC]*dG*dA*dG*dA*d[5mC]*dA*dG*dA*dA*kA*kG*kA) [compound 800103]”, the “% Inhibition” value was 4%.

For “800104 (antisense kA*kG*kG*dA*d[5mC]*dG*dA*dG*dA*d[5mC]*dA*dG*dA*kA*kA*kG) [compound 800104]”, the “% Inhibition” value was determined as 17%.

As to “800105 (antisense kT*k[5mC]*k[5mC]*dT*dA*dG*dA*dA*dT*dG*dA*dA*dG*kA*k[5mC]*kA) [compound 800105]”, the “% Inhibition” value is listed as 17%.

For the substance “800106 (antisense k[5mC]*kA*kG*dA*dG*dA*dG*dG*dG*dT*dT*dA*dG*kT*kG*kG) [compound 800106]”, the “% Inhibition” value came out at 12%.

Turning to “800107 (antisense kA*kA*kT*d[5mC]*dT*dA*dG*dA*dA*dA*dA*d[5mC]*dA*k[5mC]*kA*kT) [compound 800107]”, the “% Inhibition” value turned out to be 0%.

Regarding “800108 (antisense kG*kG*kA*dA*dT*d[5mC]*dT*dA*dG*dA*dA*dA*dA*k[5mC]*kA*k[5mC]) [compound 800108]”, the “% Inhibition” value was found to be 12%.
